What was measured:
transgenic rice Line 26 = experiment: Response of rice plants to various herbicides, seed set in greenhouse; assay type: in vivo; conditions: post-emergence, 1× g ai/ha: PURSUIT 62.5, CADRE 32, ARSENAL 24, RAPTOR 32, SCEPTER 125, ACCENT 35, CLASSIC 5, AC322,140 20, LONDAX 68
Description: (§1) A total of 9 herbicides, 5 imidazolinones, two rice herbicides and ACCENT® (nicosulfuron) and CLASSIC® (clorimuron-ethyl) were applied in this study. Materials and methods were basically the same as described above, except that instead of 6″ pots, flats with 18 (3″×3″ per cell) cells were used, and 10-12 seeds were planted to one 3″×3″ cell. Ten plants were maintained in one cell in the post-emergence application. Each herbicide was sprayed at 4 different rates, 1, 2, 4, and 6×, as either pre or post-emergence applications with three replications per treatment. The name and amount of herbicide applied in this experiment and information relevant to their commercial applications are listed in Table 3. For simplicity and convenience, the lowest concentration used is referred as 1× rate, 2, 4 and 6× rates can be calculated as multiples of 1×.
(§2) To monitor plant response to various herbicides, data on fresh weight was collected. For pre-emergence applications, all plants from one cell were harvested 32 days after spraying (36-day old plants) and weighed. Twenty-nine days after herbicide application, 5 plants (44-day old plants) from each cell in the post-emergence application, were cut and weighed individually. Mean fresh weight for each treatment was calculated over three replications. The remaining 5 plants were grown in the greenhouse to maturity at which time, panicles of 3 plants were collected, and number of filled seeds and number of total kernels were counted to determine percentage of seed set.

[1] = tested on: untransformed Nt rice plants; experiment: as above; assay type: in vivo; conditions: post-emergence, 1× g ai/ha: PURSUIT 62.5, CADRE 32, ARSENAL 24, RAPTOR 32, SCEPTER 125, ACCENT 35, CLASSIC 5, AC322,140 20, LONDAX 68
Description: as §1, §2

transgenic rice Line 29 = experiment: as above; assay type: in vivo; conditions: post-emergence, 1× g ai/ha: PURSUIT 62.5, CADRE 32, ARSENAL 24, RAPTOR 32, SCEPTER 125, ACCENT 35, CLASSIC 5, AC322,140 20, LONDAX 68
Description: as §1, §2

[2] = tested on: AHAS (acetohydroxyacid synthase) in extracts of Nortai, Line 26 and Line 29; experiment: In vitro AHAS activity assay; assay type: biochemical, rice; conditions: a significant portion of the enzyme activity; compared with normal enzyme from Nortai; FIG. 2
Protocol: Previously published procedures were used for the extraction and in vitro assay for AHAS activity (Singh et al. 1988). Lower portions of the shoots were used as the source of plant tissue for the assay. The desalted crude extracts were used for the in vitro enzyme assays. Acetolactate produced by the enzyme was converted to acetoin, which was measured by the Westerfield assay system.
In vitro AHAS assays were performed to understand the basis of herbicide tolerance in the transgenic plants. Previously published procedure was used for the extraction and in vitro assay for AHAS activity (Singh et al. 1988). The lower portions of the shoots were used as the source of plant tissue for the assay. The desalted crude extracts were used for the in vitro enzyme assays. Acetolactate produced by the enzyme was converted to acetoin, which was measured by the Westerfield assay system (Westerfield 1945). The specific activity of AHAS was about 30% higher in Line 26 (67 nmoles/mg protein/h) and Line 29 (64 nmoles/mg protein/h) compared to the activity in Nortai (Nt) (50 nmoles/mg protein/h).

[3] = tested on: transgenic corn hybrids BAa-4 and MAa-7; experiment: Greenhouse spray test of corn, statements of the text on both transgenic lines; assay type: in vivo; conditions: 4× (160 g/ha)
Description: Grow one corn plant per pot (5×5 inch) in a 3×5 flat till three- to four-leaf stage (about 9 to 13 days depending on the weather). On the day of spraying, water the plants well and let excess water drip out. Spray plants on a belt-sprayer with the imidazolinone herbicides at desired rates. […] When temperature was too high, base water plants to prevent wilting. Closely observe the plants for the next two to three weeks. Symptoms of herbicide injury will be visible three days after spraying and susceptible plants will die within two to three weeks depending on temperature.
The plants were rated on a scale of 0-5 with 0 for dead plants and 5 for healthy plants with no or minimum injury.
Two transgenic hybrids BAa-4 and MAa-7 lines (see FIG. 5 for their pedigree), a non-transformed control line B×A (B73×A188), 8962IT (heterozygous XI12 imi-tolerant corn line), 8962 (wild type control) and 3395IR (homozygous XA17 imi-resistant corn line) (8962IT and 8962 were from ICI, now Garst Seed Company, Slater, Iowa 50244, and 3395IR was from Pioneer Hi-Bred International Inc, Iowa 50306-3453). Plants were sprayed with 4, 8, 16 or 20×PURSUIT® imazethapyr, ARSENAL® imazapyr, CADRE® imazameth or RAPTOR® imazamox. Plants were scored 0 to 5 (with 0 being dead plants, 5 being healthy plants with no injury) individually 16 days after herbicide treatments. […]

Row | Structure (SMILES) | % seed-set (transgenic rice Line 26; 1× rate) | No. filled seeds/3 panicles (transgenic rice Line 26; 1× rate) | Total No. of kernels/3 panicles (transgenic rice Line 26; 1× rate) | % seed-set (transgenic rice Line 26; 2× rate) | No. filled seeds/3 panicles (transgenic rice Line 26; 2× rate) | Total No. of kernels/3 panicles (transgenic rice Line 26; 2× rate) | % seed-set (transgenic rice Line 26; 4× rate) | No. filled seeds/3 panicles (transgenic rice Line 26; 4× rate) | Total No. of kernels/3 panicles (transgenic rice Line 26; 4× rate) | % seed-set (transgenic rice Line 26; 6× rate) | No. filled seeds/3 panicles (transgenic rice Line 26; 6× rate) | Total No. of kernels/3 panicles (transgenic rice Line 26; 6× rate) | % seed-set ([1]; 1× rate) | No. filled seeds/3 panicles ([1]; 1× rate) | Total No. of kernels/3 panicles ([1]; 1× rate) | % seed-set ([1]; 2× rate) | No. filled seeds/3 panicles ([1]; 2× rate) | Total No. of kernels/3 panicles ([1]; 2× rate) | % seed-set ([1]; 4× rate) | No. filled seeds/3 panicles ([1]; 4× rate) | also measured
1 | CC(C)C1(C)N=C(c2ncccc2C(=O)O)NC1=O (stereo not drawn) [ARSENAL ®, imazapyr] | 85% | 156 | 183 | 77% | 132 | 170 | 6% | 10 | 170 | 1% | 2 | 178 | 0% | 0 | 0 | 0% | 0 | 0 | 0% | 0 | Total No. of kernels/3 panicles ([1]; 4× rate): 0; % seed-set ([1]; 6× rate): 0%; No. filled seeds/3 panicles ([1]; 6× rate): 0; Total No. of kernels/3 panicles ([1]; 6× rate): 0; % seed-set (transgenic rice Line 29; 1× rate): 90%; No. filled seeds/3 panicles (transgenic rice Line 29; 1× rate): 122; Total No. of kernels/3 panicles (transgenic rice Line 29; 1× rate): 137; % seed-set (transgenic rice Line 29; 2× rate): 81%; No. filled seeds/3 panicles (transgenic rice Line 29; 2× rate): 116; Total No. of kernels/3 panicles (transgenic rice Line 29; 2× rate): 144; % seed-set (transgenic rice Line 29; 4× rate): 26%; No. filled seeds/3 panicles (transgenic rice Line 29; 4× rate): 41; Total No. of kernels/3 panicles (transgenic rice Line 29; 4× rate): 179; % seed-set (transgenic rice Line 29; 6× rate): 19%; No. filled seeds/3 panicles (transgenic rice Line 29; 6× rate): 27; Total No. of kernels/3 panicles (transgenic rice Line 29; 6× rate): 140; inhibition of AHAS activity from tolerant Line 26 and Line 29 [2]: insensitive to inhibition
2 | Cc1cnc(C2=NC(=O)C(C)(C(C)C)N2)c(C(=O)O)c1 (stereo not drawn) [CADRE ®, imazameth] | 84% | 133 | 159 | 95% | 153 | 161 | 87% | 124 | 143 | 77% | 131 | 169 | 98% | 92 | 94 | 83% | 76 | 82 | 0% | 0 | Total No. of kernels/3 panicles ([1]; 4× rate): 0; % seed-set ([1]; 6× rate): 0%; No. filled seeds/3 panicles ([1]; 6× rate): 0; Total No. of kernels/3 panicles ([1]; 6× rate): 0; % seed-set (transgenic rice Line 29; 1× rate): 88%; No. filled seeds/3 panicles (transgenic rice Line 29; 1× rate): 154; Total No. of kernels/3 panicles (transgenic rice Line 29; 1× rate): 175; % seed-set (transgenic rice Line 29; 2× rate): 86%; No. filled seeds/3 panicles (transgenic rice Line 29; 2× rate): 143; Total No. of kernels/3 panicles (transgenic rice Line 29; 2× rate): 166; % seed-set (transgenic rice Line 29; 4× rate): 82%; No. filled seeds/3 panicles (transgenic rice Line 29; 4× rate): 126; Total No. of kernels/3 panicles (transgenic rice Line 29; 4× rate): 154; % seed-set (transgenic rice Line 29; 6× rate): 80%; No. filled seeds/3 panicles (transgenic rice Line 29; 6× rate): 127; Total No. of kernels/3 panicles (transgenic rice Line 29; 6× rate): 159
3 | CCc1cnc(C2=NC(C)(C(C)C)C(=O)N2)c(C(=O)O)c1 (stereo not drawn) [PURSUIT ®, imazethapyr] | 91% | 143 | 157 | 86% | 133 | 155 | 89% | 152 | 172 | 77% | 107 | 138 | 35% | 38 | 47 | 0% | 0 | 0 | 10% | 19 | Total No. of kernels/3 panicles ([1]; 4× rate): 21; % seed-set ([1]; 6× rate): 0%; No. filled seeds/3 panicles ([1]; 6× rate): 0; Total No. of kernels/3 panicles ([1]; 6× rate): 0; % seed-set (transgenic rice Line 29; 1× rate): 85%; No. filled seeds/3 panicles (transgenic rice Line 29; 1× rate): 125; Total No. of kernels/3 panicles (transgenic rice Line 29; 1× rate): 146; % seed-set (transgenic rice Line 29; 2× rate): 88%; No. filled seeds/3 panicles (transgenic rice Line 29; 2× rate): 136; Total No. of kernels/3 panicles (transgenic rice Line 29; 2× rate): 155; % seed-set (transgenic rice Line 29; 4× rate): 88%; No. filled seeds/3 panicles (transgenic rice Line 29; 4× rate): 138; Total No. of kernels/3 panicles (transgenic rice Line 29; 4× rate): 156; % seed-set (transgenic rice Line 29; 6× rate): 87%; No. filled seeds/3 panicles (transgenic rice Line 29; 6× rate): 141; Total No. of kernels/3 panicles (transgenic rice Line 29; 6× rate): 160; inhibition of AHAS activity from tolerant Line 26 and Line 29 [2]: insensitive to inhibition
4 | COCc1cnc(C2=NC(C)(C(C)C)C(=O)N2)c(C(=O)O)c1 (stereo not drawn) [RAPTOR ®, imazamox] | 87% | 156 | 180 | 89% | 172 | 193 | 91% | 166 | 183 | 77% | 136 | 167 | 0% | 0 | 0 | 0% | 0 | 0 | 0% | 0 | injury to transgenic corn plants [3]: no or slight injury; Total No. of kernels/3 panicles ([1]; 4× rate): 0; % seed-set ([1]; 6× rate): 0%; No. filled seeds/3 panicles ([1]; 6× rate): 0; Total No. of kernels/3 panicles ([1]; 6× rate): 0; % seed-set (transgenic rice Line 29; 1× rate): 89%; No. filled seeds/3 panicles (transgenic rice Line 29; 1× rate): 161; Total No. of kernels/3 panicles (transgenic rice Line 29; 1× rate): 180; % seed-set (transgenic rice Line 29; 2× rate): 80%; No. filled seeds/3 panicles (transgenic rice Line 29; 2× rate): 137; Total No. of kernels/3 panicles (transgenic rice Line 29; 2× rate): 171; % seed-set (transgenic rice Line 29; 4× rate): 91%; No. filled seeds/3 panicles (transgenic rice Line 29; 4× rate): 152; Total No. of kernels/3 panicles (transgenic rice Line 29; 4× rate): 167; % seed-set (transgenic rice Line 29; 6× rate): 80%; No. filled seeds/3 panicles (transgenic rice Line 29; 6× rate): 125; Total No. of kernels/3 panicles (transgenic rice Line 29; 6× rate): 149

Reference: US6653529B2, “Use of the maize X112 mutant ahas 2 gene and imidazolinone herbicides for selection of transgenic monocots, maize, rice and wheat plants resistant to the imidazolinone herbicides” (BASF Aktiengesellschaft, priority 2000, dated 2003)
